The results in this text go back to ChEMBL document CHEMBL6115046, “Synthesis and In Vitro Profiling of Psilocin Derivatives: Improved Stability and Synthetic Properties” (J Med Chem, 2025).

Data set [1] is described as follows: Thermal stability of the compound assessed as parent compound remaining at 60 degreeC measured for 6 days by LC-MS analysis. The data set is classed as physicochemical. The note with it: time 6 day.
The nature of data set [2]: Chemical stability of the compound in 1M HCl assessed as half life measured for 24 hrs by LC-MS analysis. The data set is classed as physicochemical.
Data set [3] is described as follows: Thermal stability of compound assessed as half life at 60 degreeC measured for 6 days by LC-MS analysis. The data set is classed as physicochemical. The note with it: 144 h; time 6 day.
Data set [4] in a line: Stability of the compound in 0.30% H2O2 assessed as half life measured after 24 hrs by LC-MS analysis. The data set is classed as physicochemical.
A short description of data set [5]: Stability of the compound in 1M HCl assessed as parent compound remaining measured for 24 hrs by LC-MS analysis. The data set is classed as physicochemical. The conditions noted are these: buffer.
Data set [6] is described as follows: Photolytic stability of the compound assessed as parent compound remaining incubated under 12900 lx light irradiation measured for 14 days by LC-MS analysis. The data set is classed as physicochemical. The conditions noted are these: time 14 day.
Data set [7] in a line: Stability of the compound in 0.1M NaOH assessed as half life measured after 24 hrs by LC-MS analysis. The data set is classed as physicochemical.
Data set [8] is described as follows: Metabolic stability in human liver microsomes assessed as degradation at 1 uM measured upto 45 mins in presence of NADPH measured per mg protein by LC-MS/MS analysis. The data set is classed as ADME, Microsome. The conditions noted are these: 0.75 h. Background: Liver microsomes are a subcellular fraction often used to study metabolism.
The nature of data set [9]: Photolytic stability of the compound assessed as half life under 12900 lx light irradiation measured for 14 days by LC-MS analysis. The data set is classed as physicochemical. The note with it: time 14 day.
Data set [10] is described as follows: Stability of the compound in 0.30% H2O2 assessed as parent compound remaining measured after 24 hrs by LC-MS analysis. The data set is classed as physicochemical. The conditions noted are these: read-out: Stability.
Data set [11] in a line: Stability of the compound in 0.1M NaOH assessed as parent compound remaining measured after 24 hrs by LC-MS analysis. The note with it: read-out: Stability. The data set is classed as physicochemical.

In the case of `CN(C)CCc1c[nH]c2cccc(O)c12.O=C1O[C@H]([C@@H](O)CO)C(O)=C1O`, the Stability amounted to 42% in data set [1] (144 h), 97% in data set [5] and 39% in data set [6] (336 h). Besides, the t1/2 was > 166.67 h in [2] (buffer, 24 h); 150 h in data set [3]; > 166.67 h in data set [4]; 16.67 h in data set [7].
For `CN(C)CCc1c[nH]c2cccc(OC(=O)N3CCCCC3)c12.O=C(O)/C=C/C(=O)O`, the Drug degradation in [8] is < 10 µL/min.
Same read-out and setting: to `CCCCC(=O)Oc1cccc2[nH]cc(CCN(C)C)c12.O=C(O)/C=C/C(=O)O` belongs > 200 µL/min; to `CN(C)CCc1c[nH]c2cccc(OS(=O)(=O)O)c12`, > 200 µL/min.
A word on the half-life: it is how long it takes for the measured level to halve. Consider `CN(C)CCc1c[nH]c2cccc(O)c12.OB(O)O`, for which the remaining at 144 h in [1] (read-out: Stability) came to 0%. The half-life in data set [2] (1M HCl) is > 167 h; in data set [9], < 16.7 h. Also, the remaining at 24 h in [10] and in [11] was 0% each time. In data set [6] (read-out: Stability), the remaining at 336 h is 0%.
For `CCCC(=O)Oc1cccc2[nH]cc(CCN(C)C)c12.O=C(O)/C=C/C(=O)O`, the Drug degradation in data set [8] was > 200 µL/min.
Still for that read-out and setting: to `CC(C)COC(=O)Oc1cccc2[nH]cc(CCN(C)C)c12.O=CO` belongs > 200 µL/min.
Still for that read-out and setting: to `CN(C)CCc1c[nH]c2cccc(OB(O)O)c12.O=C(O)/C=C/C(=O)O` belongs > 200 µL/min.
Same read-out and setting: the figure for `CN(C)CCc1c[nH]c2cccc(OCc3ccccc3)c12` is 44 µL/min; for `COC(=O)Oc1cccc2[nH]cc(CCN(C)C)c12.O=C(O)/C=C/C(=O)O` it is > 200 µL/min.
On to `CN(C)CCc1c[nH]c2cccc(OC(=O)OCc3ccccc3)c12.O=C(O)/C=C/C(=O)O.O=CO`, for which, in [8], the Drug degradation was > 200 µL/min.
The same measure, in the same setting: to `CN(C)CCc1c[nH]c2cccc(OP(=O)(O)O)c12` [PSILOCYBIN] belongs < 10 µL/min.
